{"source": "paper PMC12362783", "about": "(Advanced Science, 2025)", "key": {"[1]": {"biological_target": "DNA‐PK (Homo sapiens, UniProt P78527)", "experiment": "PIKK family kinase selectivity", "format": "biochemical"}, "[2]": {"biological_target": "ATM (Homo sapiens, UniProt Q13315)", "sequence (Q13315 whole entry, species assumed)": "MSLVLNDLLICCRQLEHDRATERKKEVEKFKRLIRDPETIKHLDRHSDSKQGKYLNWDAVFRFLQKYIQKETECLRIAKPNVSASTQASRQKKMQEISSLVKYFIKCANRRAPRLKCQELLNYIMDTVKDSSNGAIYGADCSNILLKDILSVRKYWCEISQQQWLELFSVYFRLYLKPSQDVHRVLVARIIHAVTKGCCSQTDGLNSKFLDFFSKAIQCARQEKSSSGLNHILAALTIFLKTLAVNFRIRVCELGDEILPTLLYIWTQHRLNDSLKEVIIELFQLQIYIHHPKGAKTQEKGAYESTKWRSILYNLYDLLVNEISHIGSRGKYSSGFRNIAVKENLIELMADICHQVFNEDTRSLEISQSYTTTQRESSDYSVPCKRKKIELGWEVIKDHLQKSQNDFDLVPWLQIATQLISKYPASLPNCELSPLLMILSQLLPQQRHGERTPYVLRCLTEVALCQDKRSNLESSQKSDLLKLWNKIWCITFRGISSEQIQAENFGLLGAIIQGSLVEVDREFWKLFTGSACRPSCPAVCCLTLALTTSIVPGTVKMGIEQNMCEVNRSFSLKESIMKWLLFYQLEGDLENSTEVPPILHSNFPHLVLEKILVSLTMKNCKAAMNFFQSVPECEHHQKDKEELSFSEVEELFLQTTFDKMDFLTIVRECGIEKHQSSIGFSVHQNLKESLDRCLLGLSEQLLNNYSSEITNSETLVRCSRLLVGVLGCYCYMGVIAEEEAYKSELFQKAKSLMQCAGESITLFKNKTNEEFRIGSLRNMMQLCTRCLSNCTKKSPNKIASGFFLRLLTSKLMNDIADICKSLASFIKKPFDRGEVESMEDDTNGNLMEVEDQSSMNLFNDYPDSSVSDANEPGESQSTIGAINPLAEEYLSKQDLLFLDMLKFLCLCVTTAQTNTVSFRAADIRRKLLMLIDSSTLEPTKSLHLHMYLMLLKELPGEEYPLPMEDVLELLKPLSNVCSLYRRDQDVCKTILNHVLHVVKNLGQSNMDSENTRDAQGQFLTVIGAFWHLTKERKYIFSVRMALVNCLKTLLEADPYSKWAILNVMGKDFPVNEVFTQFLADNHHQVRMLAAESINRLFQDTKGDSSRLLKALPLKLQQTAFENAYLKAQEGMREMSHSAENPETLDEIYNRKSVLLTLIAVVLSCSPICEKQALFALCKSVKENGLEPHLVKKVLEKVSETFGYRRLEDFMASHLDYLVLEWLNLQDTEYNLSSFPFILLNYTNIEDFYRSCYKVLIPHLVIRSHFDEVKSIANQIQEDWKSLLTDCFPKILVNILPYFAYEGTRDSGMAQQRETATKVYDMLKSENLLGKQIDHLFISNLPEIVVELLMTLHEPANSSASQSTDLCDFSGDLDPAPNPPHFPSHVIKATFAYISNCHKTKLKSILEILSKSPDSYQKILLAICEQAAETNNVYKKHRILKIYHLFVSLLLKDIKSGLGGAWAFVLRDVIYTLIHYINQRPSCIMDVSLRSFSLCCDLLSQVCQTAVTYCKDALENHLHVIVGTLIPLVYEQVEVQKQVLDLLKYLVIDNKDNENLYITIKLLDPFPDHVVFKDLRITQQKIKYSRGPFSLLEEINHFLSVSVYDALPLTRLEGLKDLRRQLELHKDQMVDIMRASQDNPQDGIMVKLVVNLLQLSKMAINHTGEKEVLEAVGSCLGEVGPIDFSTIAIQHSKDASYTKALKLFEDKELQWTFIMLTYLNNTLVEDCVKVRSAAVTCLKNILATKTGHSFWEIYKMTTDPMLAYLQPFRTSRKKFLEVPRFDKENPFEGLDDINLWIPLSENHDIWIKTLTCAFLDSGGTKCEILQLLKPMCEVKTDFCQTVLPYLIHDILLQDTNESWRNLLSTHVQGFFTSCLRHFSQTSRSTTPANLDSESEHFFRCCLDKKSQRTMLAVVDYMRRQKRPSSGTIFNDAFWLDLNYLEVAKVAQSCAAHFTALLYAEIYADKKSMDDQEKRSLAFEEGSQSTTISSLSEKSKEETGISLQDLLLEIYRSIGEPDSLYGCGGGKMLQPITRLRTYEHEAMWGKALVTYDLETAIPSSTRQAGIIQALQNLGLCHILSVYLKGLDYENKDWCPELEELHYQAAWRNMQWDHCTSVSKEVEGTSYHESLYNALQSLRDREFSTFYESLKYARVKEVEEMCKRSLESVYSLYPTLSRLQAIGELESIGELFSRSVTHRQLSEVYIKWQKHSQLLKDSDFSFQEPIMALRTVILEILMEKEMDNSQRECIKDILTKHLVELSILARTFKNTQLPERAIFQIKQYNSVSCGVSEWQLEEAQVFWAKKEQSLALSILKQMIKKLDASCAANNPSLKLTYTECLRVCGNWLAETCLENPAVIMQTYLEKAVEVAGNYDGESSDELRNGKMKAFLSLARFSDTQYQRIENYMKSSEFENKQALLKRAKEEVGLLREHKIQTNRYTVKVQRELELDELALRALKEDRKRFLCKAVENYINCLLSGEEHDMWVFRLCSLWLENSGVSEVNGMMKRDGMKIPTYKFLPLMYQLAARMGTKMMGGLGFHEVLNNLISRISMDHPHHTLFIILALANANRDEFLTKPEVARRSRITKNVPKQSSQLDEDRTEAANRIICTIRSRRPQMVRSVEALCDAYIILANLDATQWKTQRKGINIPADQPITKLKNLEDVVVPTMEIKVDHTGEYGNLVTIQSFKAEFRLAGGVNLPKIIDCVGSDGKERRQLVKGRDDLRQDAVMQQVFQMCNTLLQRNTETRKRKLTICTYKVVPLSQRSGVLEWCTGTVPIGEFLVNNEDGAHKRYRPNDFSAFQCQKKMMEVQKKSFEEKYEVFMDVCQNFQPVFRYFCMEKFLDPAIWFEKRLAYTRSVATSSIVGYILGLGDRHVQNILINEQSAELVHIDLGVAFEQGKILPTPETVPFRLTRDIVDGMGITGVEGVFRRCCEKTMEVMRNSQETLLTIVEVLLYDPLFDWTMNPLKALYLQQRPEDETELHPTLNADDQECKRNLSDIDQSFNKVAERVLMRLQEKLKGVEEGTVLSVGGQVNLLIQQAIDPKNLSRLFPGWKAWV", "experiment": "PIKK family kinase selectivity", "format": "biochemical"}, "[3]": {"experiment": "Oral bioavailability (statement, no method)", "format": "in vivo", "conditions": "preclinical models; necessitates I.P. delivery"}, "[4]": {"experiment": "Preliminary safety evaluation in xenografted mice (body weight, animal loss, H&E staining of organs)", "format": "in vivo", "experimental": "MDA‐MB‐468 cells (1 × 10^7) were implanted in the right flanks subcutaneously in female nude mice. When the implanted tumor grew to a volume of 110 mm^3, the animals were randomly divided into four groups, each group containing four animals. […] Tumor size and body weights were measured twice a week. On day 28, the mice were euthanized, tumors were harvested and weighed, and vital organs (heart, liver, spleen, lung, and kidney) were collected. Processed samples were saved for further safety evaluation.\nThe tumor sample and vital organs were immersed in 4% paraformaldehyde for 4 h and transferred to 70% ethanol. Individual lobes of the sample were placed in processing cassettes, dehydrated through a serial alcohol gradient, and embedded in paraffin wax blocks. Thick tissue sections (5 µm) were dewaxed in xylene, rehydrated through decreasing concentrations of ethanol, washed in PBS, and stained with H&E. After staining, the sections were dehydrated through increasing concentrations of ethanol and xylene. Images were acquired on a fluorescent inverted microscope (Nikon DS‐Ri1)."}, "[5]": {"tested_on": "MDA‐MB‐231 cells", "experiment": "Colony formation assay", "format": "cell-based", "conditions": "1.0 µM, 10 days, vs AZD6738, Olaparib alone or combination", "experimental": "(§1) The colony formation assay was performed with cells seeded in 6‐well plates (10 000 cells/well). After 10 days, cells were fixed with methanol and stained with crystal violet. The number of colonies was counted. Data represent the means ± SD from 3 independent experiments performed in triplicate wells."}, "[6]": {"tested_on": "MDA‐MB‐468 cells", "experiment": "Colony formation assay", "format": "cell-based", "conditions": "1.0 µM, 10 days, vs AZD6738, Olaparib alone or combination", "experimental": "as §1"}, "[7]": {"tested_on": "MDA‐MB‐231 cells", "experiment": "Cell apoptosis assay, Annexin V‐FITC/PI", "format": "cell-based", "conditions": "MDA‐MB‐231, 72 h", "experimental": "(§2) The cell apoptosis analysis was performed with cells seeded in 6‐well plates in growth media. The cells were allowed to attach overnight (8 h). The cultures were treated with different tested drugs for 72 h and evaluated using an Annexin V Flow Kit (BioLegend#B367750) according to the manufacturer's instructions. The data were analyzed by FlowJo software (Tree Star, Inc., Ashland, OR)."}, "[8]": {"tested_on": "MDA‐MB‐468 cells", "experiment": "Cell apoptosis assay, Annexin V‐FITC/PI", "format": "cell-based", "conditions": "MDA‐MB‐468, 72 h", "experimental": "as §2"}, "[9]": {"tested_on": "MDA‐MB‐436", "experiment": "Cell growth inhibition, CellTiter‐Glo (CTG)", "format": "cell-based", "conditions": "Homo sapiens, MDA-MB-436, 120 h; CTG, 5 days, n = 3", "experimental": "All cells were grown in a humidified incubator at 37 °C and 5% CO2.\nGrowth viability was determined by the CellTiter‐Glo luminescent viability assay (Promega) 5 days after drug treatment. Cell viability was measured immediately after dosing (Day 0) and after 5 days of incubation using CellTiter‐Glo (CTG, Promega, G7573). Relative viability was calculated by normalizing the raw luminescence counts of the treated groups to those of the DMSO control groups. IC₅₀ values were calculated using sigmoidal dose‐response curve fitting with GraphPad Prism 9.0 software."}, "[10]": {"biological_target": "mTOR (Homo sapiens, UniProt P42345)", "experiment": "PIKK family kinase selectivity", "format": "biochemical", "conditions": "@2500 nM; read-out: mTOR inhibitory rate at certain concentration"}, "[11]": {"tested_on": "MDA‐MB‐231 cells", "experiment": "Comet assay, DNA damage", "format": "cell-based", "conditions": "24 h, vs AZD6738, Olaparib, and their combination"}, "[12]": {"tested_on": "MDA‐MB‐468 xenograft tumors", "experiment": "Immunohistochemistry staining of xenograft tumors", "format": "in vivo, mice", "experimental": "The isolated tumor tissue was fixed in 4% paraformaldehyde for 24 h, dehydrated, embedded, and sliced. After deparaffinization, Ki67 (GB121141‐50, Servicebio), γH2AX (GB111841‐50, Servicebio), CD8 (GB15068‐50, Servicebio), or Cleaved‐caspase‐3 antibody (CST#9661) were incubated at 4 °C overnight, rinsed three times with PBS, and incubated with the secondary antibody. A DAB substrate solution was applied to the slide sections to reveal the antibody staining color. The tissue slide was dehydrated four times with alcohol. The tissue slides were then cleared three times in xylene and mounted with a mounting solution. The mounted slides could be stored at room temperature indefinitely. The immunohistochemical images were obtained under the microscope (Nikon DS‐Ri1)."}, "[13]": {"tested_on": "MDA‐MB‐468 xenograft", "experiment": "MDA‐MB‐468 xenografted mice model, antitumor efficacy", "format": "in vivo", "conditions": "28 days", "experimental": "Anticancer efficacy experiment in MDA‐MB‐468 Xenografted mice model was performed by Shanghai Medicilon Inc. All animal experiments in this study were conducted in strict accordance with national animal welfare regulations and were approved by the institutional animal ethics committee (Approval number: IACUC‐HZN2401P; Approval Date: 2024‐10‐18). MDA‐MB‐468 cells (1 × 10^7) were implanted in the right flanks subcutaneously in female nude mice. When the implanted tumor grew to a volume of 110 mm^3, the animals were randomly divided into four groups, each group containing four animals. Compound B8 was intraperitoneally (IP) administered at two different doses, bis in die (BID) for 28 days: low dose: 25 mg k^−1g and high dose 50 mg k^−1g. […] Tumor size and body weights were measured twice a week. On day 28, the mice were euthanized, tumors were harvested and weighed, and vital organs (heart, liver, spleen, lung, and kidney) were collected. Processed samples were saved for further safety evaluation."}, "[14]": {"tested_on": "MDA‐MB‐231 cells", "experiment": "Transwell invasion assay (Matrigel)", "format": "cell-based", "conditions": "24 h, vs AZD6738 and Olaparib alone or their combination", "experimental": "(§3) For the wound‐healing assay, MDA‐MB‐231 cells were seeded into 6‐well plates and grown to 80% confluence. A scratch was made in the cell monolayer using a 20 µL pipette tip, and the cells were washed with PBS to remove floating cells and debris. The cells were then incubated in serum‐free medium. Cells are divided into control and drug treatment Cells in the scratched area were imaged at 0 and 48 h using microscopy, and the distance traveled by cells at the leading edge of the wound at each time point was measured. To assess cell migration, a transwell assay was performed. […] Following 24 h of incubation, the filters were fixed in 4% paraformaldehyde, stained with 0.1% crystal violet, and then imaged and counted under a microscope to determine the number of invading cells. To assess cell invasion, the transwell plate was coated with a layer of Matrigel, and the rest procedure is similar to what has been described above."}, "[15]": {"tested_on": "MDA‐MB‐468 cells", "experiment": "Transwell invasion assay (Matrigel)", "format": "cell-based", "conditions": "24 h, vs AZD6738 and Olaparib alone or their combination", "experimental": "as §3"}}}
{"smiles": "C[C@@H]1COCCN1c1cc(CNC(=O)c2ccc(C(=O)N3CCN(C(=O)c4cc(Cc5n[nH]c(=O)c6ccccc56)ccc4F)CC3)cc2)nc(-c2ccnc3[nH]ccc23)n1", "note": "[Compound B8, (R)‐4‐(4‐(2‐fluoro‐5‐((4‐oxo‐3,4‐dihydrophthalazin‐1‐yl)methyl)benzoyl)piperazine‐1‐carbonyl)‐N‐((6‐(3‐methylmorpholino)‐2‐(1H‐pyrrolo[2,3‐b]pyridin‐4‐yl)pyrimidin‐4‐yl)methyl) benzamide]", "values": [{"measurement": "IC50", "setting": "[1]", "value": "> 5000", "unit": "nM"}, {"measurement": "IC50", "setting": "[2]", "value": "> 5000", "unit": "nM"}, {"measurement": "oral bioavailability", "setting": "[3]", "value": "poor oral bioavailability"}, {"measurement": "effect on body weight", "setting": "[4]; B8 25 and 50 mg/kg I.P., 28 days, nude mice", "value": "no significant effect on body weight"}, {"measurement": "H&E staining of heart, liver, spleen, lungs, and kidneys", "setting": "[4]; after 28 days of continuous administration", "value": "did not cause significant changes in organ structure or cellular morphology"}, {"measurement": "colony formation rate", "setting": "[5]", "value": "significantly greater inhibitory effect on the colony formation rate"}, {"measurement": "colony formation rate", "setting": "[6]", "value": "significantly greater inhibitory effect on the colony formation rate"}, {"measurement": "ability to induce apoptosis vs combination of AZD6738 and Olaparib", "setting": "[7]", "value": "markedly stronger capacity to induce apoptosis"}, {"measurement": "ability to induce apoptosis vs combination of AZD6738 and Olaparib", "setting": "[8]", "value": "markedly stronger capacity to induce apoptosis"}, {"measurement": "IC50", "setting": "[9]", "value": "9 ± 2", "unit": "nM"}, {"measurement": "inhibition at […]", "setting": "[10]", "value": 10.3, "unit": "%"}, {"measurement": "comet assay tail intensity", "setting": "[11]", "value": "markedly increased tail intensity"}, {"measurement": "CD8 expression in tumor tissues (IHC)", "setting": "[12]", "value": "increased the levels of CD8 expression"}, {"measurement": "Ki67, γH2AX and cleaved‐caspase 3 expression in tumors (IHC)", "setting": "[12]", "value": "decreased Ki67 expression and increased γH2AX and cleaved‐caspase 3 expression"}, {"measurement": "tumor growth inhibition rate (TGI)", "setting": "[13]; B8 50 mg/kg I.P., female nude mice", "value": 68.36, "unit": "%"}, {"measurement": "tumor weight and volume", "setting": "[13]; B8‐treated mice", "value": "significantly lower than control groups"}, {"measurement": "invasive capacity", "setting": "[14]", "value": "superior inhibitory effects on the invasive capacity"}, {"measurement": "invasive capacity", "setting": "[15]", "value": "superior inhibitory effects on the invasive capacity"}]}
